Data as given in patent US6147062A, “Phosphoryl hydrazine insecticides” (priority 1999, dated 2000).
≈ marks a conversion by molar mass, not a printed value.

Assays:
[1] = tested on: Mexican bean beetle (Epilachna varivestis); assay: Mexican Bean Beetle Test; format: in vivo; conditions: 600 grams per hectare, 48 hours after infestation, treated lima bean leaf
Procedure: (§1) The test solution was sprayed using a moving single boom tee jet sprayer at a volume equivalent to 935 liters/ha onto a petri dish containing a lima bean (Phaseolus limensis var: Woods' Prolific) leaf placed on a moistened piece of filter paper. After the leaf dried it was infested with ten beetles (Epilachna varivestis) and covered. The percent control was evaluated 48 hours after infestation.

[2] = tested on: southern corn rootworm, Diabrotica undecimpunctata howardi; assay: Corn Rootworm Screening Test; conditions: in Zea mays, soil, 240 h, read-out: Percent Control of Corn Rootworm
[3] = tested on: Southern Root-Knot Nematode Meloidogyne incognita; assay: Nematode Screening Test; format: in vivo; conditions: 11400 grams per hectare; soil, cucumber roots, 21 days
Procedure: For the nematode test, soil was homogeneously inoculated with nematode eggs (Southern Root-Knot Nematode Meloidogyne incognita) at a rate of 20000 eggs per 200 milliliters (ml) of soil extracted from a macerated blend of tomato roots heavily knotted with the root-knot nematode. Ten ml of the 150 ppm test solution were added to 200 ml of the inoculated soil in a 16 oz. jar to give a concentration by volume of 11400 grams per hectare (gm/ha). […] The jars were shaken to ensure thorough mixing, immediately uncapped, and allowed to air for two hours. The soil was placed into a 7.5 cm plastic pot and three cucumber (Cucumis sativus) seeds were planted. The pots were held under greenhouse conditions for 21 days. Upon termination, the cucumber roots were examined for the presence of knots. Results are summarized in Table 2 and are expressed as percent knot reduction.

[4] = tested on: Haemonchus contortus (McMaster, benzimidazole susceptible); assay: Anthelmintic Test, inhibition of larval development; conditions: 144 h, read-out: MIC (minimum inhibitory concentration)
Procedure: (§2) Compounds were tested as inhibitors of larval development in Haemonchus contortus (McMaster, benzimidazole susceptible) isolates, Trichostrongylus colubriformis (McMaster susceptible) and Ostertagia circumcincta (Glenlothian susceptible).
(§3) Eggs of the parasitic helminths, isolated from sheep feces, were applied to wells of a microtiter plate which contained a gradient of concentrations of the test compound in nutrient solution. After the eggs hatched, L1 larvae developed through to the L3 stage over 6 days. Development was inhibited and a minimum inhibitory concentration in ppm was determined. See for example, E. Lacey et al p 177-184 in: Resistance of Parasites to Antiparasitic Drugs, edited by J. C. Boray MSD AGVET, Rahway, N.J.

[5] = tested on: Trichostrongylus colubriformis (McMaster susceptible); assay: as above; conditions: 144 h, read-out: MIC (minimum inhibitory concentration)
Procedure: as §2, §3

[6] = tested on: Ostertagia circumcincta (Glenlothian susceptible); assay: as above; conditions: Teladorsagia circumcincta, 144 h, read-out: MIC (minimum inhibitory concentration)
Procedure: as §2, §3

[7] = tested on: Potato leafhopper (Empoasca fabae); assay: Potato Leafhopper Test; format: in vivo; conditions: 600 grams per hectare; 72 hours after infestation; treated fava bean leaf; read-out: Percent Control of Potato leaf hopper
Procedure: as §1, with “fava” for “lima”, “(Vicia faba)” for “(Phaseolus limensis var: Woods' Prolific)”, “five mixed nymphs (Empoasca fabae)” for “ten beetles (Epilachna varivestis)”, “72” for “48”

CCOP(=S)(OCC)N(NC(=O)C(Cl)(Cl)Cl)C(C)(C)C [Compound 1, 1-(O,O-diethylthiophosphoryl)-1-tertbutyl-2-trichloroacetyl Hydrazine]
percent control at 600 g/ha [1]: 100%
mortality at 11400 g/ha, 11400 g/ha [2]: 100%
Percent Control of Root Knot Nematode (percent knot reduction) [3]: 98%

CCCOP(=S)(OCCC)N(NC(=O)C(Cl)(Cl)Cl)C(C)(C)C [Compound 2]
percent control at 600 g/ha [1]: 100%
mortality at 11400 g/ha, 11400 g/ha [2]: 87%
Percent Control of Root Knot Nematode (percent knot reduction) [3]: 0%

CCCOP(=S)(OCC)N(NC(=O)C(Cl)(Cl)Cl)C(C)(C)C (centres unmarked) [Compound 3]
percent control at 600 g/ha [1]: 100%
mortality at 11400 g/ha, 11400 g/ha [2]: 98%
Percent Control of Root Knot Nematode (percent knot reduction) [3]: 74%

CCOP(=S)(OCC(C)(C)C)N(NC(=O)C(Cl)(Cl)Cl)C(C)(C)C (centres unmarked) [Compound 4]
percent control at 600 g/ha [1]: 100%
mortality at 11400 g/ha, 11400 g/ha [2]: 0%
Percent Control of Root Knot Nematode (percent knot reduction) [3]: 0%

CCOP(=S)(OC(C)CC)N(NC(=O)C(Cl)(Cl)Cl)C(C)(C)C (centres unmarked) [Compound 5]
percent control at 600 g/ha [1]: 100%
mortality at 11400 g/ha, 11400 g/ha [2]: 96%
Percent Control of Root Knot Nematode (percent knot reduction) [3]: 0%

CCOP(=S)(OC(C)C)N(NC(=O)C(Cl)(Cl)Cl)C(C)(C)C (centres unmarked) [Compound 6]
percent control at 600 g/ha [1]: 100%
mortality at 11400 g/ha, 11400 g/ha [2]: 100%
Percent Control of Root Knot Nematode (percent knot reduction) [3]: 54%

CCOP(=S)(OCC)N(NC(=O)C(F)(Cl)Cl)C(C)(C)C [Compound 7]
percent control at 600 g/ha [1]: 80%
mortality at 11400 g/ha, 11400 g/ha [2]: 96%
Percent Control of Root Knot Nematode (percent knot reduction) [3]: 0%

CCOP(=S)(OCC)N(NC(=O)C(Br)(Br)Br)C(C)(C)C [Compound 8]
percent control at 600 g/ha [1]: 30%
mortality at 11400 g/ha, 11400 g/ha [2]: 0%
Percent Control of Root Knot Nematode (percent knot reduction) [3]: 98%

COP(=S)(OC)N(NC(=O)C(Cl)(Cl)Cl)C(C)(C)C [Compound 9]
percent control at 600 g/ha [1]: 100%
mortality at 11400 g/ha, 11400 g/ha [2]: 100%
Percent Control of Root Knot Nematode (percent knot reduction) [3]: 100%

CCOP(=S)(OCC)N(NC(=O)C(Cl)Cl)C(C)(C)C [Compound 10, 1-(O,O-diethylthiophosphoryl)-1-tertbutyl-2-dichloroacetyl Hydrazine]
MIC [4]: 1.56 µg/mL (≈ 4.44 µM)
MIC [5]: 12.5 µg/mL (≈ 35.6 µM)
MIC [6]: 1.56 µg/mL (≈ 4.44 µM)
percent control at 600 g/ha [1]: 100%
mortality at 11400 g/ha, 11400 g/ha [2]: 0%
Percent Control of Root Knot Nematode (percent knot reduction) [3]: 100%

CCOP(=S)(OCC)N(NC(=O)CCl)C(C)(C)C [Compound 11, 1-(O,O-diethylthiophosphoryl)-1-tertbutyl-2-monochloroacetyl Hydrazine]
mortality at 600 g/ha, 600 g/ha [7]: 100%
mortality at 11400 g/ha, 11400 g/ha [2]: 0%
Percent Control of Root Knot Nematode (percent knot reduction) [3]: 43%

CCOP(=S)(OCC)N(NC(=O)C(F)(F)F)C(C)(C)C [Compound 12]
mortality at 600 g/ha, 600 g/ha [7]: 100%
mortality at 11400 g/ha, 11400 g/ha [2]: 100%
Percent Control of Root Knot Nematode (percent knot reduction) [3]: 0%

COP(=S)(OC)N(NC(=O)C(Cl)Cl)C(C)(C)C [Compound 13]
mortality at 600 g/ha, 600 g/ha [7]: 100%
mortality at 11400 g/ha, 11400 g/ha [2]: 0%
Percent Control of Root Knot Nematode (percent knot reduction) [3]: 100%

COP(=S)(OC)N(NC(=O)CCl)C(C)(C)C [Compound 14]
mortality at 600 g/ha, 600 g/ha [7]: 100%
mortality at 11400 g/ha, 11400 g/ha [2]: 0%
Percent Control of Root Knot Nematode (percent knot reduction) [3]: 0%

CCOP(=S)(OCC)N(NC(=O)C(F)(F)Cl)C(C)(C)C [Compound 15]
mortality at 600 g/ha, 600 g/ha [7]: 100%
mortality at 11400 g/ha, 11400 g/ha [2]: 0%
Percent Control of Root Knot Nematode (percent knot reduction) [3]: 0%

COCCOP(=S)(OCCOC)N(NC(=O)C(Cl)(Cl)Cl)C(C)(C)C [Compound 16]
mortality at 600 g/ha, 600 g/ha [7]: 100%
mortality at 11400 g/ha, 11400 g/ha [2]: 66%
Percent Control of Root Knot Nematode (percent knot reduction) [3]: 0%

COCCOP(=S)(OCCOC)N(NC(=O)C(Cl)Cl)C(C)(C)C [Compound 17]
mortality at 600 g/ha, 600 g/ha [7]: 60%
mortality at 11400 g/ha, 11400 g/ha [2]: 0%
Percent Control of Root Knot Nematode (percent knot reduction) [3]: 0%

CCOP(=S)(OCCOC)N(NC(=O)C(Cl)(Cl)Cl)C(C)(C)C (centres unmarked) [Compound 18]
mortality at 600 g/ha, 600 g/ha [7]: 100%
mortality at 11400 g/ha, 11400 g/ha [2]: 0%
Percent Control of Root Knot Nematode (percent knot reduction) [3]: 25%

CCOP(=S)(OCCOC)N(NC(=O)C(Cl)Cl)C(C)(C)C (centres unmarked) [Compound 19]
mortality at 600 g/ha, 600 g/ha [7]: 100%
mortality at 11400 g/ha, 11400 g/ha [2]: 0%
Percent Control of Root Knot Nematode (percent knot reduction) [3]: 90%

CCOP(=S)(c1ccccc1)N(NC(=O)C(Cl)(Cl)Cl)C(C)(C)C (centres unmarked) [Compound 22]
mortality at 600 g/ha, 600 g/ha [7]: 100%
mortality at 11400 g/ha, 11400 g/ha [2]: 0%
